This passage reports IC50 results from patent US8101774B2, “Ester derivatives and medicinal use thereof” (Japan Tobacco Inc., priority 2004, dated 2012).

What is called IC50 is the concentration that gives 50% inhibition.

For the experiment, the target named is T1, Microsomal triglyceride transfer protein (MTP) from human small intestine microsome (Homo sapiens, UniProt P55157).
T1 construct: Human small intestine microsome was dialyzed against 10 mM phosphate buffer; tissue Tissue Transforming Technologies, Inc; host or cells: human small intestine microsome
T1 sequence (P55157 19-894): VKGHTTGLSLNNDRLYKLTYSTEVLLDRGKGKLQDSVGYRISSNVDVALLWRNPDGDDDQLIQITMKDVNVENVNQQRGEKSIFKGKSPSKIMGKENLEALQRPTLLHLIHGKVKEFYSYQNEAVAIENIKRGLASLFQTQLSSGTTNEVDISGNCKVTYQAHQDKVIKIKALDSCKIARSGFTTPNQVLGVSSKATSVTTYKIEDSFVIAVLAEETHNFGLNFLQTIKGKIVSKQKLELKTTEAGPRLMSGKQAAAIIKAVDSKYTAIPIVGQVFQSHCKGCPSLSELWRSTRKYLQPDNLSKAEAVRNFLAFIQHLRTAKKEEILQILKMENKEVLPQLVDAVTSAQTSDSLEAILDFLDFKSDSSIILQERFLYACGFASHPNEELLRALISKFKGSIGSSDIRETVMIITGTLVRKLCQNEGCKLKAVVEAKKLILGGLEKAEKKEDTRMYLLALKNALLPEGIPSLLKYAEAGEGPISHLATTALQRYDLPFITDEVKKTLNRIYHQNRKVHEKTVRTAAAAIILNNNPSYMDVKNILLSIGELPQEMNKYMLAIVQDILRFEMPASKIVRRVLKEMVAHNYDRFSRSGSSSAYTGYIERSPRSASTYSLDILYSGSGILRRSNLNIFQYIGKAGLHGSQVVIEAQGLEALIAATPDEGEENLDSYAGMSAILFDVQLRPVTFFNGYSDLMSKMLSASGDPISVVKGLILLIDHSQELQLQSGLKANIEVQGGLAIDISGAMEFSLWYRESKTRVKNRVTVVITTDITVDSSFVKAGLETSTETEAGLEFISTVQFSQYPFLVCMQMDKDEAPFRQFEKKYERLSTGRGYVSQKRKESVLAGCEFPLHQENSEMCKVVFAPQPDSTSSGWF
T1 sequence (P07237 18-508 partner): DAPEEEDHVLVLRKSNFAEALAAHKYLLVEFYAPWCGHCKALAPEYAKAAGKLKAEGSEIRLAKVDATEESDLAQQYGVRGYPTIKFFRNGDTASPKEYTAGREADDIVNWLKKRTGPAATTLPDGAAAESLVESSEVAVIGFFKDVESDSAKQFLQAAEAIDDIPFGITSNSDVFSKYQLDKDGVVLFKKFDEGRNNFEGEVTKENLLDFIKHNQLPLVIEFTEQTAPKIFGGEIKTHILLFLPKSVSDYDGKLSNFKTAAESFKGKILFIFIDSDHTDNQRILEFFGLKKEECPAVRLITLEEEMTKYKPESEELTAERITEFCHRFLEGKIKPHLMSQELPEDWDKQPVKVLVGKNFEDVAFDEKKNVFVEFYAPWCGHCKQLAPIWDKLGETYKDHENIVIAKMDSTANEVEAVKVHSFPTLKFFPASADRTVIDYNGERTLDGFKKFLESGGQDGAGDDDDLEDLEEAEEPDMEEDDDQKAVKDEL
Description: Inhibition test of interliposomal triglyceride (TG) transfer activity by MTP. It is filed as biochemical. Particulars: purified MTP from human small intestine microsome, 37° C., 1.5 hours. In short, it runs like this: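 DEAE-purified human small intestine MTP (50 μL of 20 μg/mL) incubated 1.5 hours at 37° C with ^14C-triolein donor and unlabelled acceptor SUV liposomes in pH 7.4 Tris buffer with 0.5% BSA. Donor removed on DEAE cellulose; acceptor radioactivity counted, blank-corrected against DMSO control, giving percent inhibition and IC50.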

Regarding `CC(C)n1nnc(-c2ccc(OC(=O)CCCc3ccc(NC(=O)c4ccccc4-c4ccc(C(F)(F)F)cc4)c(C(=O)N(C)C)c3)cc2)n1` [Compound 1-115, 4-(3-dimethylcarbamoyl-4-{(4′-trifluoromethylbiphenyl-2-carbonyl)amino}phenyl)butyric acid 4-(2-isopropyl-2H-tetrazol-5-yl)phenyl ester], the IC50 is below 10 nM.

`Cc1ccc(C(=O)Nc2ccc(CCCC(=O)Oc3ccc(C(=O)OCc4ccccc4)cc3)cc2C(=O)N(C)C)c(-c2ccc(C(F)(F)F)cc2)n1` [Compound 1-80, 4-[4-(3-dimethylcarbamoyl-4-{[6-methyl-2-(4-trifluoromethylphenyl)pyridine-3-carbonyl]amino}phenyl)butyryloxy]benzoic acid benzyl ester] had an IC50 below 10 nM.

For `COc1cccc(COC(=O)c2ccc(OC(=O)CCCc3ccc(NC(=O)c4ccccc4-c4ccc(C(F)(F)F)cc4)c(C(=O)N(C)C)c3)cc2)c1` [Compound 1-97, 4-[4-(3-dimethylcarbamoyl-4-{(4′-trifluoromethylbiphenyl-2-carbonyl)amino}phenyl)butyryloxy]benzoic acid 3-methoxybenzyl ester], the IC50 was below 10 nM.

The molecule `COC(=O)c1ccc(OC(=O)CCCc2ccc(NC(=O)c3ccc(C)nc3-c3ccc(C(F)(F)F)cc3)c(C(=O)N(C)C)c2)c(C)c1` [Compound 1-69, 4-[4-(3-dimethylcarbamoyl-4-{[6-methyl-2-(4-trifluoromethylphenyl)pyridine-3-carbonyl]amino}phenyl)butyryloxy]-3-methylbenzoic acid methyl ester] registered an IC50 of 10 to 100 nM.

`COC(=O)c1ccc(OC(=O)CCCc2ccc(NC(=O)c3ccccc3-c3ccc(C(F)(F)F)cc3)c(C(=O)N(C)C)c2)c(C(C)C)c1` [Compound 1-68, 4-[4-(3-dimethylcarbamoyl-4-{(4′-trifluoromethylbiphenyl-2-carbonyl)amino}phenyl)butyryloxy]-3-isopropylbenzoic acid methyl ester] returned an IC50 below 10 nM.

`COC(=O)c1ccc(OC(=O)CCCc2ccc(NC(=O)c3ccccc3-c3ccc(C(F)(F)F)cc3)c(C(=O)N(C)C)c2)cc1C` [Compound 1-14, 4-(4-{3-dimethylcarbamoyl-4-[(4′-trifluoromethylbiphenyl-2-carbonyl)amino]phenyl}butyryloxy)-2-methyl benzoic acid methyl ester] returned an IC50 below 10 nM.

As to `CN(C)C(=O)c1cc(CCCC(=O)Oc2ccc(C(=O)OCCCOCc3ccccc3)cc2)ccc1NC(=O)c1ccccc1-c1ccc(C(F)(F)F)cc1` [Compound 1-90, 4-[4-(3-dimethylcarbamoyl-4-{(4′-trifluoromethylbiphenyl-2-carbonyl)amino}phenyl)butyryloxy]benzoic acid 3-benzyloxypropyl ester], the IC50 is below 10 nM.

Molecule `COc1cc(C(=O)OC(C)C)cc(F)c1OC(=O)CCCc1ccc(NC(=O)c2ccc(C)nc2-c2ccc(C(F)(F)F)cc2)c(C(=O)N(C)C)c1` [Compound 1-38, 4-[4-(3-dimethylcarbamoyl-4-{[6-methyl-2-(4-trifluoromethylphenyl)pyridine-3-carbonyl]amino}phenyl)butyryloxy]-3-fluoro-5-methoxybenzoic acid isopropyl ester] returned an IC50 of 10 to 100 nM.

`CCCC(=O)c1ccc(OC(=O)CCCc2ccc(NC(=O)c3ccccc3-c3ccc(C(F)(F)F)cc3)c(C(=O)N(C)C)c2)cc1` [Compound 1-93, 4-(3-dimethylcarbamoyl-4-{(4′-trifluoromethylbiphenyl-2-carbonyl)amino}phenyl)butyric acid 4-butyrylphenyl ester] returned an IC50 below 10 nM.

In turn, `CN(C)C(=O)c1cc(CCCC(=O)Oc2ccc(C(=O)OCc3cccc(Cl)c3)cc2)ccc1NC(=O)c1ccccc1-c1ccc(C(F)(F)F)cc1` [Compound 1-87, 4-[4-(3-dimethylcarbamoyl-4-{(4′-trifluoromethylbiphenyl-2-carbonyl)amino}phenyl)butyryloxy]benzoic acid 3-chlorobenzyl ester] displayed an IC50 below 10 nM.

For the molecule `COC(=O)c1ccc(OC(=O)CCCc2ccc(NC(=O)c3ccccc3-c3ccc(C(F)(F)F)cc3)c(C(=O)N(C)C)c2)cc1OC` [Compound 1-17, 4-(4-{3-dimethylcarbamoyl-4-[(4′-trifluoromethylbiphenyl-2-carbonyl)amino]phenyl}butyryloxy)-2-methoxybenzoic acid methyl ester], the IC50 was 10 to 100 nM.

“3-chloro-4-[4-(3-dimethylcarbamoyl-4-{[6-methyl-2-(4-trifluoromethylphenyl)pyridine-3-carbonyl]amino}phenyl)butyryloxy]-5-methoxybenzoic acid methyl ester sulfonate [Compound 1-56]” came in with an IC50 below 10 nM.

The molecule `COC(=O)c1ccc(OC(=O)CCCc2ccc(NC(=O)c3ccccc3-c3ccc(C(F)(F)F)cc3)c(C(=O)N(C)C)c2)cc1C(F)(F)F` [Compound 1-21, 4-(4-{3-dimethylcarbamoyl-4-[(4′-trifluoromethylbiphenyl-2-carbonyl)amino]phenyl}butyryloxy)-2-trifluoromethylbenzoic acid methyl ester] displayed an IC50 of 10 to 100 nM.

Molecule `CC(=O)NCCOC(=O)c1ccc(OC(=O)CCCc2ccc(NC(=O)c3ccccc3-c3ccc(C(F)(F)F)cc3)c(C(=O)N(C)C)c2)cc1` [Compound 1-77, 4-[4-(3-dimethylcarbamoyl-4-{(4′-trifluoromethylbiphenyl-2-carbonyl)amino}phenyl)butyryloxy]benzoic acid 2-acetylaminoethyl ester] returned an IC50 below 10 nM.

`COC(=O)c1cc(Cl)c(OC(=O)CCCc2ccc(NC(=O)c3ccc(C)nc3-c3ccc(C(F)(F)F)cc3)c(C(=O)N(C)C)c2)c(C(C)C)c1` [Compound 1-74, 3-chloro-4-[4-(3-dimethylcarbamoyl-4-{[6-methyl-2-(4-trifluoromethylphenyl)pyridine-3-carbonyl]amino}phenyl)butyryloxy]-5-isopropylbenzoic acid methyl ester] showed an IC50 below 10 nM.

As for `COC(=O)c1ccc(-c2nc(C)ccc2C(=O)Nc2ccc(CCCC(=O)Oc3c(C)cc(C(=O)OC)cc3C(=O)OC)cc2C(=O)N(C)C)cc1` [Compound 4-2, 4-[4-(3-dimethylcarbamoyl-4-{[2-(4-methoxycarbonylphenyl)-6-methylpyridine-3-carbonyl]amino}phenyl)butyryloxy]-5-methylisophthalic acid dimethyl ester], the 50% inhibitory concentration (IC50) was below 10 nM.

On to `COC(=O)c1ccc(OC(=O)CCCc2ccc(NC(=O)c3ccc(C)nc3-c3ccc(C(F)(F)F)cc3)c(C(=O)N(C)C)c2)cn1` [Compound 1-32, 5-[4-(3-dimethylcarbamoyl-4-{[6-methyl-2-(4-trifluoromethylphenyl)pyridine-3-carbonyl]amino}phenyl)butyryloxy]pyridine-2-carboxylic acid methyl ester], for which the IC50 lay within 100 to 1000 nM.

As to `CC(C)OCCOC(=O)c1ccc(OC(=O)CCCc2ccc(NC(=O)c3ccccc3-c3ccc(C(F)(F)F)cc3)c(C(=O)N(C)C)c2)cc1` [Compound 1-76, 4-[4-(3-dimethylcarbamoyl-4-{(4′-trifluoromethylbiphenyl-2-carbonyl)amino}phenyl)butyryloxy]benzoic acid 2-isopropoxyethyl ester], the half-maximal inhibitory concentration (IC50) is below 10 nM.

As for `CCCOC(=O)c1cc(Cl)c(OC(=O)CCCc2ccc(NC(=O)c3ccc(C)nc3-c3ccc(C(F)(F)F)cc3)c(C(=O)N(C)C)c2)c(OC)c1` [Compound 1-75, 3-chloro-4-[4-(3-dimethylcarbamoyl-4-{[6-methyl-2-(4-trifluoromethylphenyl)pyridine-3-carbonyl]amino}phenyl)butyryloxy]-5-methoxybenzoic acid propyl ester], the IC50 was below 10 nM.

Regarding `CN(C)C(=O)c1cc(CCCC(=O)Oc2ccc(C(=O)OCC(=O)OCc3ccccc3)cc2)ccc1NC(=O)c1ccccc1-c1ccc(C(F)(F)F)cc1` [Compound 1-78], the half-inhibitory concentration (IC50) is below 10 nM.

`CCOC(=O)c1cc(C)c(OC(=O)CCCc2ccc(NC(=O)c3ccc(C)nc3-c3ccc(C(F)(F)F)cc3)c(C(=O)N(C)C)c2)c(C(=O)OC)c1` [Compound 1-52, 4-[4-(3-dimethylcarbamoyl-4-{[6-methyl-2-(4-trifluoromethylphenyl)pyridine-3-carbonyl]amino}phenyl)butyryloxy]-5-methylisophthalic acid 1-ethyl ester 3-methyl ester] gave an IC50 below 10 nM.

`COC(=O)c1ccc(OC(=O)CCCc2ccc(NC(=O)c3ccccc3-c3ccc(C(F)(F)F)cc3)c(C(=O)N(C)C)c2)c(Cl)c1` [Compound 1-11, 3-chloro-4-(4-{3-dimethylcarbamoyl-4-[(4′-trifluoromethylbiphenyl-2-carbonyl)amino]phenyl}butyryloxy)benzoic acid methyl ester] displayed an IC50 below 10 nM.

For `CCOC(=O)c1cc(OC)c(OC(=O)CCCc2ccc(NC(=O)c3ccc(C)nc3-c3ccc(C(F)(F)F)cc3)c(C(=O)N(C)C)c2)c(C(=O)OC)c1` [Compound 1-54, 4-[4-(3-dimethylcarbamoyl-4-{[6-methyl-2-(4-trifluoromethylphenyl)pyridine-3-carbonyl]amino}phenyl)butyryloxy]-5-methoxyisophthalic acid 1-ethyl ester 3-methyl ester], the IC50 is below 10 nM.

`CC(C)OC(=O)c1ccc(OC(=O)CCCc2ccc(NC(=O)c3ccccc3-c3ccc(C(F)(F)F)cc3)c(C(=O)N(C)C)c2)cc1` [Compound 1-7, 4-(4-{3-dimethylcarbamoyl-4-[(4′-trifluoromethylbiphenyl-2-carbonyl)amino]phenyl}butyryloxy)benzoic acid isopropyl ester]: the IC50 is below 10 nM.

For `CN(C)C(=O)COC(=O)c1ccc(OC(=O)CCCc2ccc(NC(=O)c3ccccc3-c3ccc(C(F)(F)F)cc3)c(C(=O)N(C)C)c2)cc1` [Compound 1-85, 4-[4-(3-dimethylcarbamoyl-4-{(4′-trifluoromethylbiphenyl-2-carbonyl)amino}phenyl)butyryloxy]benzoic acid dimethylcarbamoylmethyl ester], the IC50 is below 10 nM.
